Data reported in patent publication US10501514B2, “Cyclic galanin-analogs and uses thereof” (LanthioPep B.V., priority 2015, dated 2019).
Entries after “also recorded” stand apart in the source; their conditions may differ.

Experiments:
[1] = system: Galanin receptor (GalR1, GalR2); experiment: Galanin receptor activation assays, overall statements in words; type: cell-based; conditions: for preference for stimulating GalR2 (over GalR1), in words: GalR2 versus GalR1; for activity, in words: overall statement on galanin receptor activation
Protocol: The biological activity of the (lanthi)galanins was determined in CHO-K1 cell lines that express either the GalR1, or GalR2 receptor. Activity measurements were performed using commercial kits from DiscoverX for determining arrestin recruitment (GalR1, GalR2) and inhibition of cAMP synthesis (GalR1). In addition, HEK293 cell lines that express the GalR2 receptor have been used for methods from Molecular Probes to measure calcium efflux (GalR2).
Peptide was dissolved in 0.3% ammonia. Peptides were incubated o/n at 37° C. for the introduction of the lanthionine via base assisted sulfur extrusion of the disulfide bridged peptide. Different isomers could be isolated by HPLC applying the same method as was used as for the biologically produced peptides. Different isomers were purified and lyophilized. Dry peptides were dissolved in 100 mM phosphate buffer pH=7.6 and peptides were incubated o/n at 50° C. After HPLC purification peptides with a pE formation were selected and used in the different Galanin receptor activation assays.

GalR2 = target: T1, GalR2 (Homo sapiens, UniProt O43603); type: cell-based; conditions: for efficacy via GalR2 compared with GalWtb, in words: GalR2, Table 1 data
T1 construct: expressed in transfected cells; host or cells: HEK293
T1 sequence (O43603 1-387): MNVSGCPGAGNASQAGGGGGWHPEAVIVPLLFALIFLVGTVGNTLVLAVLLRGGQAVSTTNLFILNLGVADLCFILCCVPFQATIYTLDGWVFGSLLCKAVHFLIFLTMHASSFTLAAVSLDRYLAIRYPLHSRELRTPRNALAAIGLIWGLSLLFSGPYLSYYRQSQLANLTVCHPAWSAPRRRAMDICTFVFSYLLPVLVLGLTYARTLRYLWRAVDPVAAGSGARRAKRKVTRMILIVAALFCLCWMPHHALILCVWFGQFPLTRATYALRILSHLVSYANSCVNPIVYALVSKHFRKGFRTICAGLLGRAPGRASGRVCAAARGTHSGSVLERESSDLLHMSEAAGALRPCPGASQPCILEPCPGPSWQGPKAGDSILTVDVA
Protocol: ND indicates ‘not determined’.
Peptide was dissolved in 0.3% ammonia. […] Different isomers were purified and lyophilized.

SMILES | preference for stimulating GalR2 (over GalR1), in words [1] | further results
CC(C)C[C@H](NC(=O)[C@H](CC(C)C)NC(=O)[C@H](Cc1ccc(O)cc1)NC(=O)CNC(=O)[C@H](C)NC(=O)[C@H](C)NC(=O)[C@H](CC(N)=O)NC(=O)[C@H](CC(C)C)NC(=O)[C@H](CC(N)=O)NC(=O)[C@H](Cc1c[nH]c2ccccc12)NC(=O)[C@@H]1CCC(=O)N1)C(=O)NCC(=O)N[C@@H](C)C(=O)N[C@H]1C(=O)N[C@@H](C)C(=O)N[C@@H](C(C)C)C(=O)N[C@H](C(=O)N[C@@H](CC(N)=O)C(=O)N[C@@H](Cc2c[nH]cn2)C(=O)O)CS[C@H]1C [GalM54tr] | GalR2-specific | –
CC(C)C[C@H](NC(=O)[C@H](CC(C)C)NC(=O)[C@H](Cc1ccc(O)cc1)NC(=O)CNC(=O)[C@H](C)NC(=O)[C@H](C)NC(=O)[C@H](CC(N)=O)NC(=O)[C@H](CC(C)C)NC(=O)[C@H](CC(N)=O)NC(=O)[C@H](Cc1c[nH]c2ccccc12)NC(=O)[C@@H]1CCC(=O)N1)C(=O)N[C@@H](C)C(=O)N[C@H]1C(=O)N[C@@H](Cc2c[nH]cn2)C(=O)N[C@@H](C)C(=O)N[C@H](C(=O)NCC(=O)N[C@@H](CC(N)=O)C(=O)N[C@@H](Cc2c[nH]cn2)C(=O)N[C@@H](CCCNC(=N)N)C(=O)O)CS[C@H]1C [GalM50b] | preference for stimulating GalR2 | –
CC(C)C[C@H](NC(=O)[C@H](CC(C)C)NC(=O)[C@H](Cc1ccc(O)cc1)NC(=O)CNC(=O)[C@H](C)NC(=O)[C@H](C)NC(=O)[C@H](CC(N)=O)NC(=O)[C@H](CC(C)C)NC(=O)[C@H](CC(N)=O)NC(=O)[C@H](Cc1c[nH]c2ccccc12)NC(=O)[C@@H]1CCC(=O)N1)C(=O)NCC(=O)N1CCC[C@H]1C(=O)N[C@H]1C(=O)N[C@@H](C)C(=O)N[C@@H](C(C)C)C(=O)N[C@H](C(=O)O)CS[C@H]1C [GalM87] | preference for stimulating GalR2 | –
CC(C)C[C@H](NC(=O)[C@H](CC(C)C)NC(=O)[C@H](Cc1ccc(O)cc1)NC(=O)CNC(=O)[C@H](C)NC(=O)[C@H](C)NC(=O)[C@H](CC(N)=O)NC(=O)[C@H](CC(N)=O)NC(=O)[C@H](CC(N)=O)NC(=O)[C@H](Cc1c[nH]c2ccccc12)NC(=O)CN)C(=O)NCC(=O)N[C@@H](C)C(=O)N[C@H]1C(=O)N[C@@H](C)C(=O)N[C@@H](C(C)C)C(=O)N[C@H](C(=O)N[C@@H](CC(N)=O)C(=O)N[C@@H](Cc2c[nH]cn2)C(=O)N[C@@H](CCCNC(=N)N)C(=O)O)CS[C@H]1C [GalM94] | – | efficacy via GalR2 compared with GalWtb, in words (GalR2): comparable efficacy via GalR2 like GalWtb
CC(C)C[C@H](NC(=O)[C@H](CC(C)C)NC(=O)[C@H](Cc1ccc(O)cc1)NC(=O)CNC(=O)[C@H](C)NC(=O)[C@H](C)NC(=O)[C@H](CC(N)=O)NC(=O)[C@H](CC(C)C)NC(=O)[C@H](CC(N)=O)NC(=O)[C@H](Cc1c[nH]c2ccccc12)NC(=O)[C@@H]1CCC(=O)N1)C(=O)NCC(=O)N[C@@H](C)C(=O)N[C@H]1C(=O)N[C@@H](C)C(=O)N[C@@H](C(C)C)C(=O)N[C@H](C(=O)N[C@@H](CC(N)=O)C(=O)N[C@@H](Cc2c[nH]cn2)C(=O)N[C@@H](CCCNC(=N)N)C(=O)O)CS[C@H]1C [GalM54] | GalR2-specific; also recorded: preference for stimulating GalR2 | β-arrestin recruitment via GalR2, preference in words (GalR2; FIG. 2): preferentially stimulates β-arrestin recruitment via GalR2
CC(C)C[C@@H]1NC(=O)[C@H](Cc2ccc(O)cc2)NC(=O)C(NC(=O)[C@H](C)NC(=O)[C@H](C)NC(=O)[C@H](CC(N)=O)NC(=O)[C@H](CC(C)C)NC(=O)[C@H](CC(N)=O)NC(=O)[C@H](Cc2c[nH]c3ccccc23)NC(=O)CN)CSC[C@@H](C(=O)NCC(=O)N2CCC[C@H]2C(=O)N[C@@H](Cc2c[nH]cn2)C(=O)N[C@@H](C)C(=O)N[C@H](C(=O)NCC(=O)N[C@@H](CC(N)=O)C(=O)N[C@@H](Cc2c[nH]cn2)C(=O)N[C@@H](CCCNC(=N)N)C(=O)O)C(C)C)NC(=O)[C@H](CC(C)C)NC1=O (stereo partly drawn) [GalM73] | – | activity, in words [1]: retained some activity
CC(C)C[C@H](NC(=O)[C@H](CC(C)C)NC(=O)[C@H](Cc1ccc(O)cc1)NC(=O)CNC(=O)[C@H](C)NC(=O)[C@H](C)NC(=O)[C@H](CC(N)=O)NC(=O)[C@@H](NC(=O)[C@H](CC(N)=O)NC(=O)[C@H](Cc1c[nH]c2ccccc12)NC(=O)CN)C(C)C)C(=O)NCC(=O)N[C@@H](C)C(=O)N[C@H]1C(=O)N[C@@H](C)C(=O)N[C@@H](C(C)C)C(=O)N[C@H](C(=O)N[C@@H](CC(N)=O)C(=O)N[C@@H](Cc2c[nH]cn2)C(=O)N[C@@H](CCCNC(=N)N)C(=O)O)CS[C@H]1C [GalM92] | – | efficacy via GalR2 compared with GalWtb, in words (GalR2): comparable efficacy via GalR2 like GalWtb
CC(C)C[C@H](NC(=O)[C@H](CC(C)C)NC(=O)[C@H](Cc1ccc(O)cc1)NC(=O)CNC(=O)[C@H](C)NC(=O)[C@H](C)NC(=O)[C@H](CC(N)=O)NC(=O)[C@H](CC(C)C)NC(=O)[C@H](CC(N)=O)NC(=O)[C@H](Cc1c[nH]c2ccccc12)NC(=O)[C@@H]1CCC(=O)N1)C(=O)N[C@@H](C)C(=O)N[C@H]1C(=O)N[C@@H](Cc2c[nH]cn2)C(=O)N[C@@H](C)C(=O)N[C@H](C(=O)NCC(=O)O)CS[C@H]1C [GalM89b] | preference for stimulating GalR2 | –
CC(C)C[C@@H]1NC(=O)[C@H](CC(C)C)NC(=O)[C@H](Cc2ccc(O)cc2)NC(=O)[C@H](NC(=O)[C@H](C)NC(=O)[C@H](C)NC(=O)[C@H](CC(N)=O)NC(=O)[C@H](CC(C)C)NC(=O)[C@H](CC(N)=O)NC(=O)[C@H](Cc2c[nH]c3ccccc23)NC(=O)[C@@H]2CCC(=O)N2)CSC[C@@H](C(=O)O)NC1=O [GalM82] | – | activity, in words [1]: low activity
CC(C)C[C@@H]1NC(=O)[C@H](CC(C)C)NC(=O)[C@H](Cc2ccc(O)cc2)NC(=O)C(NC(=O)[C@H](C)NC(=O)[C@H](C)NC(=O)[C@H](CC(N)=O)NC(=O)[C@H](CC(C)C)NC(=O)[C@@H](NC(=O)[C@H](Cc2c[nH]c3ccccc23)NC(=O)[C@@H]2CCC(=O)N2)[C@@H](C)O)CSCC(C(=O)O)NC1=O (single isomer, unassigned) [4179 C, pEWTLNAAlanYLLlan] | – | Ratio EC50s relative to Gal-(1-15), GalR2 Ca efflux (GalR2): 248
CC(C)C[C@H](NC(=O)[C@H](CC(C)C)NC(=O)[C@H](Cc1ccc(O)cc1)NC(=O)CNC(=O)[C@H](C)NC(=O)[C@H](C)NC(=O)[C@H](CC(N)=O)NC(=O)[C@H](CC(C)C)NC(=O)[C@H](CC(N)=O)NC(=O)[C@H](Cc1c[nH]c2ccccc12)NC(=O)[C@@H]1CCC(=O)N1)C(=O)NCC(=O)N1CCC[C@H]1C(=O)N[C@@H](Cc1c[nH]cn1)C(=O)N[C@@H](C)C(=O)N[C@H]1C(=O)NCC(=O)N[C@@H](CC(N)=O)C(=O)N[C@H](C(=O)N[C@@H](CCCNC(=N)N)C(=O)O)CS[C@H]1C [GalM74b] | preference for stimulating GalR2 | –
